In brackets after ≈: the same amount, converted by molar mass. Where two headings read alike, the source gives them in different places.
What was measured:
WI38 cells = assay: Toxicity to WI38 cells (change in morphology in / growth inhibition of 25% of the cells); format: cell-based
Rhinovirus 1A = assay: Anti-rhinovirus activity, cytopathic effect inhibition / neutral red dye uptake, type 1A; format: cell-based; conditions: Enterovirus, WI-38
Rhinovirus 1B = assay: Anti-rhinovirus activity, cytopathic effect inhibition / neutral red dye uptake, type 1B; format: cell-based; conditions: Enterovirus, WI-38; Table II; one of seven commonest serotypes; read-out: MIC 50 Rhinovirus Type 1B
Rhinovirus 2 = assay: Anti-rhinovirus activity, cytopathic effect inhibition / neutral red dye uptake, type 2; format: cell-based; conditions: Enterovirus, WI-38; Table II; one of seven commonest serotypes; read-out: MIC 50 Rhinovirus Type 2
Rhinovirus 4 = assay: Anti-rhinovirus activity, cytopathic effect inhibition / neutral red dye uptake, type 4; format: cell-based; conditions: Enterovirus, WI-38; Table II; one of seven commonest serotypes; read-out: MIC 50 Rhinovirus Type 4
Rhinovirus 15 = assay: Anti-rhinovirus activity, cytopathic effect inhibition / neutral red dye uptake, type 15; format: cell-based; conditions: Enterovirus, WI-38; Table II; one of seven commonest serotypes; read-out: MIC 50 Rhinovirus Type 15
Rhinovirus 17 = assay: Anti-rhinovirus activity, cytopathic effect inhibition / neutral red dye uptake, type 17; format: cell-based; conditions: Enterovirus, WI-38; Table II; read-out: MIC 50 Rhinovirus Type 17
Rhinovirus 23 = assay: Anti-rhinovirus activity, cytopathic effect inhibition / neutral red dye uptake, type 23; format: cell-based; conditions: Enterovirus, WI-38; Table II; read-out: MIC 50 Rhinovirus Type 23
Rhinovirus 29 = assay: Anti-rhinovirus activity, cytopathic effect inhibition / neutral red dye uptake, type 29; format: cell-based; conditions: Enterovirus, WI-38; Table II; one of seven commonest serotypes; read-out: MIC 50 Rhinovirus Type 29
Rhinovirus 30 = assay: Anti-rhinovirus activity, cytopathic effect inhibition / neutral red dye uptake, type 30; format: cell-based; conditions: Enterovirus, WI-38; Table II; read-out: MIC 50 Rhinovirus Type 30
Rhinovirus 31 = assay: Anti-rhinovirus activity, cytopathic effect inhibition / neutral red dye uptake, type 31; format: cell-based; conditions: Enterovirus, WI-38; Table II; one of seven commonest serotypes; read-out: MIC 50 Rhinovirus Type 31
Rhinovirus 32 = assay: Anti-rhinovirus activity, cytopathic effect inhibition / neutral red dye uptake, type 32; format: cell-based; conditions: Enterovirus, WI-38; Table II; read-out: MIC 50 Rhinovirus Type 32
Rhinovirus 36 = assay: Anti-rhinovirus activity, cytopathic effect inhibition / neutral red dye uptake, type 36; format: cell-based; conditions: Enterovirus, WI-38; Table II; read-out: MIC 50 Rhinovirus Type 36
Rhinovirus 39 = assay: Anti-rhinovirus activity, cytopathic effect inhibition / neutral red dye uptake, type 39; format: cell-based; conditions: Enterovirus, WI-38; Table I; WI38 cells, 33° C., 3-4 days; read-out: MIC50 Rhinovirus 39
Rhinovirus 44 = assay: Anti-rhinovirus activity, cytopathic effect inhibition / neutral red dye uptake, type 44; format: cell-based; conditions: Enterovirus, WI-38; Table II; read-out: MIC 50 Rhinovirus Type 44
Rhinovirus 49 = assay: Anti-rhinovirus activity, cytopathic effect inhibition / neutral red dye uptake, type 49; format: cell-based; conditions: Enterovirus, WI-38; Table II; read-out: MIC 50 Rhinovirus Type 49
Rhinovirus 53 = assay: Anti-rhinovirus activity, cytopathic effect inhibition / neutral red dye uptake, type 53; format: cell-based; conditions: Enterovirus, WI-38; Table II; read-out: MIC 50 Rhinovirus Type 53
Rhinovirus 56 = assay: Anti-rhinovirus activity, cytopathic effect inhibition / neutral red dye uptake, type 56; format: cell-based; conditions: Enterovirus, WI-38; Table II; read-out: MIC 50 Rhinovirus Type 56
Rhinovirus 63 = assay: Anti-rhinovirus activity, cytopathic effect inhibition / neutral red dye uptake, type 63; format: cell-based; conditions: Enterovirus, WI-38; Table II; read-out: MIC 50 Rhinovirus Type 63
Rhinovirus 86 = assay: Anti-rhinovirus activity, cytopathic effect inhibition / neutral red dye uptake, type 86; format: cell-based; conditions: Enterovirus, WI-38; Table II; read-out: MIC 50 Rhinovirus Type 86
Rhinovirus 88 = assay: Anti-rhinovirus activity, cytopathic effect inhibition / neutral red dye uptake, type 88; format: cell-based; conditions: Enterovirus, WI-38; Table II; read-out: MIC 50 Rhinovirus Type 88
Polio 1 = assay: microbe, parasite or virus in culture; format: cell-based; conditions: Enterovirus, read-out: MIC 50 Polio 1
Coxsacki-A9 = assay: Activity against other picornaviruses, Coxsacki-A9; format: cell-based; conditions: Enterovirus, read-out: MIC 50 Cox. A9
Coxsacki-A21 = assay: Activity against other picornaviruses, Coxsacki-A21; format: cell-based; conditions: Enterovirus, read-out: MIC 50 Cox. A21
Coxsacki-B1 = assay: Activity against other picornaviruses, Coxsacki-B1; format: cell-based; conditions: Enterovirus, read-out: MIC 50 Cox. B1
Coxsacki-B4 = assay: Activity against other picornaviruses, Coxsacki-B4; format: cell-based; conditions: Enterovirus, read-out: MIC 50 Cox. B4
Echo-7 = assay: Activity against other picornaviruses, Echo-7; format: cell-based; conditions: Enterovirus, read-out: MIC 50 Echo 7
Echo-11 = assay: Activity against other picornaviruses, Echo-11; format: cell-based; conditions: Enterovirus, read-out: MIC 50 Echo 11
Enterovirus serotypes = format: cell-based; conditions: for All Enterovirus Serotypes (number of serotypes active / tested): Table III, numerator, denominator 7, but 5 for compound 8
[1] = test system: 20 serotypes of rhinovirus; assay: Anti-rhinovirus activity against a panel of 20 serotypes; conditions: Table II; numerator; denominator 20, but 10 for compound 8 and 6 for compound 30
HRV-1A and HRV-39 = assay: Anti-rhinovirus activity against HRV-1A and HRV-39; conditions: in words
[2] = Table I, concentration with change in morphology in 25% of WI38 cells
[3] = Table I, WI38 cells, 33° C., 3-4 days, NA = Not active, read-out: MIC50 Rhinovirus 1A

Row | Structure (SMILES) | Toxicity (WI38 cells; [2]) [µg/mL] | Toxicity (WI38 cells; Table II) [µg/mL] | Toxicity (WI38 cells; Table III) [µg/mL] | EC50 (Rhinovirus 1A; [3]) [µg/mL] | IC50 (Rhinovirus 1B) [µg/mL] | IC50 (Rhinovirus 2) [µg/mL] | IC50 (Rhinovirus 4) [µg/mL] | IC50 (Rhinovirus 15) [µg/mL] | IC50 (Rhinovirus 17) [µg/mL] | IC50 (Rhinovirus 23) [µg/mL] | IC50 (Rhinovirus 29) [µg/mL] | IC50 (Rhinovirus 30) [µg/mL] | EC50 (Rhinovirus 31) [µg/mL] | EC50 (Rhinovirus 32) [µg/mL] | EC50 (Rhinovirus 36) [µg/mL] | EC50 (Rhinovirus 39) [µg/mL] | EC50 (Rhinovirus 44) [µg/mL] | EC50 (Rhinovirus 49) [µg/mL] | EC50 (Rhinovirus 53) [µg/mL] | EC50 (Rhinovirus 56) [µg/mL] | further results
1 | Cc1cc(CCCCCCCOc2ccc(C3=NCCO3)cc2)on1 [Disoxaril, reference compound] | 50 | 50 | 50 | 10 (≈ 29.2 µM) | 25 (≈ 73 µM) | > 25 | 0.5 (≈ 1.46 µM) | 5 (≈ 14.6 µM) | < 0.5 | 10 (≈ 29.2 µM) | 10 (≈ 29.2 µM) | 0.5 (≈ 1.46 µM) | 25 (≈ 73 µM) | 10 (≈ 29.2 µM) | > 25 | 5 (≈ 14.6 µM) | < 0.5 | > 25 | 25 (≈ 73 µM) | 25 (≈ 73 µM) | EC50 (Rhinovirus 1A; Table II, one of seven commonest serotypes, read-out: MIC 50 Rhinovirus Type 1A): 25 µg/mL (≈ 73 µM); EC50 (Rhinovirus 63): 25 µg/mL (≈ 73 µM); EC50 (Rhinovirus 86): 0.5 µg/mL (≈ 1.46 µM); EC50 (Rhinovirus 88): < 0.5 µg/mL; EC50 (Polio 1): 5 µg/mL (≈ 14.6 µM); EC50 (Coxsacki-A9): 5 µg/mL (≈ 14.6 µM); IC50 (Coxsacki-A21): 5 µg/mL (≈ 14.6 µM); IC50 (Coxsacki-B1): 10 µg/mL (≈ 29.2 µM); IC50 (Coxsacki-B4): 10 µg/mL (≈ 29.2 µM); IC50 (Echo-7): 5 µg/mL (≈ 14.6 µM); IC50 (Echo-11): 5 µg/mL (≈ 14.6 µM); All Enterovirus Serotypes (number of serotypes active / tested) (Enterovirus serotypes): 7; All Rhinovirus Serotypes (number of serotypes active / tested) [1]: 17
2 | Cc1csc(CCCCCCCOc2ccc3oc4ccccc4c3c2)n1 [Compound 15] | 50 | 50 | 50 | 10 (≈ 26.3 µM) | 5 (≈ 13.2 µM) | > 25 | 1 (≈ 2.63 µM) | 5 (≈ 13.2 µM) | 5 (≈ 13.2 µM) | 10 (≈ 26.3 µM) | 5 (≈ 13.2 µM) | 5 (≈ 13.2 µM) | 1 (≈ 2.63 µM) | > 25 | > 25 | 5 (≈ 13.2 µM) | 1 (≈ 2.63 µM) | > 25 | > 25 | 5 (≈ 13.2 µM) | EC50 (Rhinovirus 63): > 25 µg/mL; EC50 (Rhinovirus 86): < 0.5 µg/mL; EC50 (Rhinovirus 88): < 0.5 µg/mL; EC50 (Polio 1): 5 µg/mL (≈ 13.2 µM); EC50 (Coxsacki-A9): 1 µg/mL (≈ 2.63 µM); IC50 (Coxsacki-A21): 5 µg/mL (≈ 13.2 µM); IC50 (Coxsacki-B1): 25 µg/mL (≈ 65.9 µM); IC50 (Coxsacki-B4): 10 µg/mL (≈ 26.3 µM); IC50 (Echo-7): 10 µg/mL (≈ 26.3 µM); IC50 (Echo-11): > 25 µg/mL; inhibitory activity against the members of the Entero virus family (Enterovirus serotypes): remarkable inhibitory activity; All Enterovirus Serotypes (number of serotypes active / tested) (Enterovirus serotypes): 6; All Rhinovirus Serotypes (number of serotypes active / tested) [1]: 14
3 | Cc1cnsc1CCCCCCOc1ccc2oc3ccccc3c2c1 [Compound 19] | 50 | 50 | 50 | 10 (≈ 27.4 µM) | 5 (≈ 13.7 µM) | 10 (≈ 27.4 µM) | > 25 | 10 (≈ 27.4 µM) | > 25 | 10 (≈ 27.4 µM) | 10 (≈ 27.4 µM) | 0.5 (≈ 1.37 µM) | > 25 | > 25 | > 25 | 5 (≈ 13.7 µM) | < 0.5 | > 25 | 10 (≈ 27.4 µM) | 10 (≈ 27.4 µM) | EC50 (Rhinovirus 63): 10 µg/mL (≈ 27.4 µM); EC50 (Rhinovirus 86): 10 µg/mL (≈ 27.4 µM); EC50 (Rhinovirus 88): 1 µg/mL (≈ 2.74 µM); EC50 (Polio 1): > 25 µg/mL; EC50 (Coxsacki-A9): 10 µg/mL (≈ 27.4 µM); IC50 (Coxsacki-A21): 10 µg/mL (≈ 27.4 µM); IC50 (Coxsacki-B1): 5 µg/mL (≈ 13.7 µM); IC50 (Coxsacki-B4): > 25 µg/mL; IC50 (Echo-7): 25 µg/mL (≈ 68.4 µM); IC50 (Echo-11): > 25 µg/mL; inhibitory activity against the members of the Entero virus family (Enterovirus serotypes): remarkable inhibitory activity; All Enterovirus Serotypes (number of serotypes active / tested) (Enterovirus serotypes): 4; inhibitory activity against HRV-1A and HRV-39 in vitro (HRV-1A and HRV-39): remarkably inhibitory activity; All Rhinovirus Serotypes (number of serotypes active / tested) [1]: 14

Reference: patent publication US5026848A, “Novel generation of heteroaryloxyalkyl heterocycles with antipicornaviruses activities” (Synphar Laboratories Incorporated, priority 1988, dated 1991)
